# From publication PMC12227560, “Total synthesis of a sorrentanone ester library and evaluation of its antimicrobial potential” (Scientific Reports, 2025)
# Like-named read-outs stand apart in the source and are kept apart here.
# Key:
# C. albicans ATCC10231 = assay: Antimicrobial broth micro-dilution assay (MIC); format: cell-based; conditions: Candida albicans, read-out: Minimum inhibitory concentration (MIC)
# Text: (§1) 3. Bioactivity and Toxicity Assays
# (§2) Antimicrobial assay: According to the standard broth micro-dilution assays, following the Standards of European Committee on Antimicrobial Susceptibility Testing (v 7.3.1: Method for the determination of broth dilution minimum inhibitory concentrations of antifungal agents for yeasts) for Candida spp., and according to the standard broth micro-dilution assays, recommended by the National Committee for Clinical Laboratory Standards (M07-A8) for bacteria MIC values of compounds were determinate. Compounds were dissolved in DMSO at a concentration of 50 mg/mL, and the highest tested concentration was 250 µg/mL. The inoculums were 1x10^5 colony forming units (CFU/mL), for Candida species, and bacteria species, 5x10^5 colony forming units (CFU/mL). The MIC value was recorded as the lowest concentration that inhibited the growth after 24 h at 37 °C. Additionally, 5 µL from each well of 96 well plates was transferred to Luria Agar (LA) plates for bacteria and Sabouraud agar (SAB) plates for Candida spp. and incubated for an additional 24 h at 37 °C, to determine MBC (Minimum bactericidal/fungicidal concentration) values. In Table 1. Are labeled compounds showing a difference in MBC and previously determined MIC values. […]
# E. coli NCTC9001 = assay: Antimicrobial broth micro-dilution assay (MIC); format: cell-based; conditions: Escherichia coli, read-out: Minimum inhibitory concentration (MIC)
# Text: as §1, §2
# P. aeruginosa ATCC27853 = assay: Antimicrobial broth micro-dilution assay (MIC); format: cell-based; conditions: Pseudomonas aeruginosa, read-out: Minimum inhibitory concentration (MIC)
# Text: as §1, §2
# S. aureus ATCC25923 = assay: Antimicrobial broth micro-dilution assay (MIC); format: cell-based; conditions: Staphylococcus aureus, read-out: Minimum inhibitory concentration (MIC)
# Text: as §1, §2
# B. subtilis ATCC6633 = assay: Antimicrobial broth micro-dilution assay (MIC); format: cell-based; conditions: Bacillus subtilis, read-out: Minimum inhibitory concentration (MIC)
# Text: as §1, §2
# S. aureus MRSA = assay: Antimicrobial broth micro-dilution assay (MIC); format: cell-based; conditions: Staphylococcus aureus, read-out: Minimum inhibitory concentration (MIC)
# Text: as §1, §2
# Caenorhabditis elegans = assay: In vivo toxicity C. elegans survival assay; conditions: C. elegans model
# Procedure: 3. Bioactivity and Toxicity Assays […]
# Compounds were dissolved in DMSO at a concentration of 50 mg/mL, and the highest tested concentration was 250 µg/mL. […]
# In vivo toxicity C. elegans assay: The C. elegans survival assay was carried out as described previously with some modifications. 8 In brief, synchronized worms (L4 stage) were suspended in a medium containing 95% M9 buffer (3.0 g of KH2PO4, 6.0 g of Na2HPO4, 5.0 g of NaCl, and 1 mL of 1 M MgSO4 × 7H2O in 1 L of water), 5% LB (Luria-Bertani) broth (Oxoid, Basingstoke, UK), and 10 μg of cholesterol (Sigma -Aldrich, Munich, Germany) per mL. The experiment was carried out in 96 -well flat -bottomed microtiter plates (Sarstedt, Nümbrecht, Germany) in the final volume of 100 μL per wel l. 25 μL of this suspension of nematodes (25 –35 nematodes) were transferred to the wells of a 96 -well microtiter plate, where 50 μL of the medium was previously added. Next, 25 μL of a solvent control (DMSO) or 25 μL of a concentrated solution was added to the test wells. The final concentrations of the compounds were 50, 25, 10, and 5 µg/mL. Subsequently, the plates were incubated at 25 °C for 2 days. The fraction of dead worms was determined after 48 h by counting the number of dead worms and the total number of worms in each well, using a stereomicroscope (SMZ143-N2GG, Motic, Germany).
# As a negative control experiment, nematodes were exposed to the medium containing 1% […]
# Ergosterol biosynthesis assay: Ergosterol levels were measured according to the published procedure with some minor modifications. 10 Briefly, a sing le C. albicans colony from an overnight Sabouraud dextrose agar plate was used to inoculate 50 ml of Sabouraud dextrose broth containing 0.5 MIC concentrated compounds. Incubation was performed for 18 h at 37 °C on the rotary shaker at 180 rpm. Cells were harvested by centrifugation at 3000 rpm for 5 min and washed once with sterile distilled water. The net wet weight of the cell pellet was determined. Three milliliters of 25% alcoholic potassium hydroxide solution (25 g of KOH and 35 ml of sterile distill ed water, brought to 100 ml with 100% ethanol), was added to each pellet and vortex mixed for 1 min and incubated in an 85 °C water bath for 1 h. Tubes were cooled to room temperature and extraction of sterols was done with the addition of a mixture of 1 ml of sterile distilled water and 3 ml of n-heptane followed by vigorous vortex mixing for 3 min. The heptane layer was used for spectrophotometrically measuring ergosterol concentrations by scanning absorbance between 240 nm and 300 nm using Ultrospec 3300pro 573 (Amer sham Biosciences, Amersham, UK).
# [1] = system: two S. aureus strains and B. subtilis ATCC6633; assay: Antimicrobial assay, Gram-positive bacteria; format: cell-based; conditions: from MIC values
# Text: as §1, §2
# [2] = system: human lung fibroblast cell line (MRC-5); assay: Cytotoxicity evaluation by MTT assay; format: cell-based
# Text: as §1
# Antimicrobial assay: According to the standard broth micro-dilution assays, following the Standards of European Committee on Antimicrobial Susceptibility Testing (v 7.3.1: Method for the determination of broth dilution minimum inhibitory concentrations of antifungal agents for yeasts) for Candida spp., and according to the standard broth micro-dilution assays, recommended by the National Committee for Clinical Laboratory Standards (M07-A8) for bacteria MIC values of compounds were determinate. Compounds were dissolved in DMSO at a concentration of 50 mg/mL, and the highest tested concentration was 250 µg/mL. The inoculums were 1x10^5 colony forming units (CFU/mL), for Candida species, and bacteria species, 5x10^5 colony forming units (CFU/mL). The MIC value was recorded as the lowest concentration that inhibited the growth after 24 h at 37 °C. Additionally, 5 µL from each well of 96 well plates was transferred to Luria Agar (LA) plates for bacteria and Sabouraud agar (SAB) plates for Candida spp. and incubated for an additional 24 h at 37 °C, to determine MBC (Minimum bactericidal/fungicidal concentration) values. In Table 1. Are labeled compounds showing a difference in MBC and previously determined MIC values.
# Cytotoxicity evaluation: Antiproliferative activity was tested by MTT assay (3-(4,5-dimethylthiazol-2-yl)-2,5-diphenyltetrazoliumbromide) on a human lung fibroblast cell line (MRC-5; ATCC collection). Pre-grown (24 h) cell monolayers (1x10^4 cells per well) in RPMI 1640 medium supplemented with 100 μg/mL streptomycin, 100 U/mL penicillin, and 10% (v/v) FBS (all from Sigma, Munich, Germany) containing the tested compounds at concentrations ranging from 5 to 20 μg/mL were incubated in a humidified atmosphere of 95% air and 5% CO2 at 37 °C for 48 h. The cell viability (extent of MTT reduction) was measured spectrophotometrically at 540 nm using the Epoch 2000 multiplate reader, and the cell survival was expressed as a percentage of the control (untreated cells). Cytotoxicity was expressed as the concentration of the compound inhibiting cell growth by 50% (IC 50). […]
# [3] = C. albicans ATCC10231, 24 h at 37 °C, highest tested concentration 250 µg/mL
# [4] = E. coli NCTC9001, 24 h at 37 °C, highest tested concentration 250 µg/mL
# [5] = P. aeruginosa ATCC27853, 24 h at 37 °C, highest tested concentration 250 µg/mL
# [6] = S. aureus ATCC25923, 24 h at 37 °C, highest tested concentration 250 µg/mL
# [7] = B. subtilis ATCC6633, 24 h at 37 °C, highest tested concentration 250 µg/mL
# [8] = S. aureus MRSA, 24 h at 37 °C, highest tested concentration 250 µg/mL
MIC (C. albicans ATCC10231; [3]),MIC (E. coli NCTC9001; [4]),MIC (P. aeruginosa ATCC27853; [5]),MIC (S. aureus ATCC25923; [6]),MIC (B. subtilis ATCC6633; [7]),MIC (S. aureus MRSA; [8]),SMILES,in vivo toxicity (in words) (Caenorhabditis elegans),improvement of antibacterial activity compared to sorrentanone (7) [1],"cell survival ([2]; MRC-5 cells, 10 µg/mL, 48 h)","selectivity index (SI) ([2]; cytotoxicity versus antibiotic activity, calculation not described)","MIC (C. albicans ATCC10231; ATCC10231, 24 h)","MIC (E. coli NCTC9001; NCTC9001, 24 h)","MIC (P. aeruginosa ATCC27853; ATCC27853, 24 h)","MIC (S. aureus ATCC25923; ATCC25923, 24 h)","MIC (B. subtilis ATCC6633; ATCC6633, 24 h)","MIC (S. aureus MRSA; MRSA, 24 h)"
> 250 µg/mL,> 250 µg/mL,> 250 µg/mL,62.5 µg/mL,15.6 µg/mL,31.2 µg/mL,COC(=O)C1=C(C)C(=O)C(O)=C(C)C1=O [compound 28],–,–,–,–,–,–,–,–,–,–
> 250 µg/mL,> 250 µg/mL,> 250 µg/mL,62.5 µg/mL,15.6 µg/mL,62.5 µg/mL,CCOC(=O)C1=C(C)C(=O)C(O)=C(C)C1=O [compound 29],–,–,–,–,–,–,–,–,–,–
> 250 µg/mL,> 250 µg/mL,> 250 µg/mL,62.5 µg/mL,15.6 µg/mL,62.5 µg/mL,CCCOC(=O)C1=C(C)C(=O)C(O)=C(C)C1=O [compound 30],–,–,–,–,–,–,–,–,–,–
> 250 µg/mL,> 250 µg/mL,> 250 µg/mL,31.2 µg/mL,15.6 µg/mL,31.2 µg/mL,CCCCOC(=O)C1=C(C)C(=O)C(O)=C(C)C1=O [compound 31],–,–,–,–,–,–,–,–,–,–
> 250 µg/mL,> 250 µg/mL,> 250 µg/mL,31.2 µg/mL,31.2 µg/mL,31.2 µg/mL,CC1=C(O)C(=O)C(C)=C(C(=O)OCC(C)C)C1=O [compound 32],–,–,–,–,–,–,–,–,–,–
> 250 µg/mL,> 250 µg/mL,> 250 µg/mL,15.6 µg/mL,15.6 µg/mL,15.6 µg/mL,CCCCCOC(=O)C1=C(C)C(=O)C(O)=C(C)C1=O [compound 33],comparatively lower in vivo toxicity,two- to four-fold improved activity,–,–,–,–,–,–,–,–
> 250 µg/mL,> 250 µg/mL,> 250 µg/mL,15.6 µg/mL,15.6 µg/mL,15.6 µg/mL,CC1=C(O)C(=O)C(C)=C(C(=O)OCCC(C)C)C1=O [compound 34],–,two- to four-fold improved activity,–,–,–,–,–,–,–,–
62.5 µg/mL,> 250 µg/mL,> 250 µg/mL,31.2 µg/mL,7.81 µg/mL,31.2 µg/mL,CCCCCCOC(=O)C1=C(C)C(=O)C(O)=C(C)C1=O [compound 35],–,–,–,–,–,–,–,–,–,–
> 250 µg/mL,> 250 µg/mL,> 250 µg/mL,62.5 µg/mL,31.2 µg/mL,31.2 µg/mL,C=CCCOC(=O)C1=C(C)C(=O)C(O)=C(C)C1=O [compound 37],–,–,–,–,–,–,–,–,–,–
> 250 µg/mL,> 250 µg/mL,> 250 µg/mL,62.5 µg/mL,31.2 µg/mL,31.2 µg/mL,C#CCCOC(=O)C1=C(C)C(=O)C(O)=C(C)C1=O [compound 38],–,–,–,–,–,–,–,–,–,–
62.5 µg/mL,> 250 µg/mL,> 250 µg/mL,31.2 µg/mL,31.2 µg/mL,62.5 µg/mL,C#CCCCOC(=O)C1=C(C)C(=O)C(O)=C(C)C1=O [compound 40],–,–,over 60%,–,–,–,–,–,–,–
–,–,–,–,–,–,"CN[C@H](CC(C)C)C(=O)N[C@H]1C(=O)N[C@@H](CC(N)=O)C(=O)N[C@H]2C(=O)N[C@H]3C(=O)N[C@H](C(=O)N[C@H](C(=O)O)c4cc(O)cc(O)c4-c4cc3ccc4O)[C@H](O)c3ccc(c(Cl)c3)Oc3cc2cc(c3O[C@@H]2O[C@H](CO)[C@@H](O)[C@H](O)[C@H]2O[C@H]2C[C@](C)(N)[C@H](O)[C@H](C)O2)Oc2ccc(cc2Cl)[C@H]1O [vancomycin, reference compound]",–,–,–,200,50 µg/mL,125 µg/mL,125 µg/mL,1 µg/mL,0.4 µg/mL,0.5 µg/mL
